Results from Sander's compilation of Henry's law constants (doi:10.1021/es00081a021).

Assay: Henry solubility constant Hcp at 298.15 K (mol/(m3 Pa))
Details: reference: Brunner et al. (1990)

**Q.** For `Clc1cc(-c2cc(Cl)c(Cl)c(Cl)c2Cl)c(Cl)c(Cl)c1Cl` [2,2',3,3',4,4',5,5'-octachlorobiphenyl], which “Henry solubility constant Hcp” value is on record?
**A.** The value was 0.99.

**Q.** For `Clc1cc(-c2c(Cl)cc(Cl)c(Cl)c2Cl)c(Cl)c(Cl)c1Cl` [2,2',3,3',4,4',5,6'-octachlorobiphenyl], which “Henry solubility constant Hcp” value is on record?
**A.** The value was 0.99.

**Q.** With `Clc1cc(Cl)c(-c2c(Cl)c(Cl)cc(Cl)c2Cl)c(Cl)c1Cl` [2,2',3,3',4,5',6,6'-octachlorobiphenyl] as the compound, how does the “Henry solubility constant Hcp” value read?
**A.** The value was 0.58.

**Q.** Which “Henry solubility constant Hcp” value does the source give for `Clc1cc(Cl)c(Cl)c(-c2ccc(Cl)c(Cl)c2Cl)c1` [2,2',3,3',4,5'-hexachlorobiphenyl] here?
**A.** The value was 0.27.

**Q.** Which “Henry solubility constant Hcp” value does the source give for `Clc1cc(-c2c(Cl)c(Cl)cc(Cl)c2Cl)c(Cl)c(Cl)c1Cl` [2,2',3,3',4,5,5',6'-octachlorobiphenyl] here?
**A.** Its value is 0.99.

**Q.** For `Clc1cc(-c2c(Cl)ccc(Cl)c2Cl)c(Cl)c(Cl)c1Cl` [2,2',3,3',4,5,6'-heptachlorobiphenyl], which “Henry solubility constant Hcp” value is on record?
**A.** The value was 0.7.

**Q.** For `Clc1cccc(-c2c(Cl)c(Cl)c(Cl)c(Cl)c2Cl)c1Cl` [2,2',3,3',4,5,6-heptachlorobiphenyl], which “Henry solubility constant Hcp” value is on record?
**A.** Its value is 0.7.

**Q.** For `Clc1cccc(-c2cc(Cl)c(Cl)c(Cl)c2Cl)c1Cl` [2,2',3,3',4,5-hexachlorobiphenyl], which “Henry solubility constant Hcp” value is on record?
**A.** Its value is 0.34.

**Q.** For `Clc1cc(Cl)c(Cl)c(-c2c(Cl)c(Cl)cc(Cl)c2Cl)c1Cl` [2,2',3,3',5,5',6,6'-octachlorobiphenyl], which “Henry solubility constant Hcp” value is on record?
**A.** Its value is 0.55.

**Q.** For `Clc1cc(Cl)c(Cl)c(-c2c(Cl)ccc(Cl)c2Cl)c1` [2,2',3,3',5,6'-hexachlorobiphenyl], which “Henry solubility constant Hcp” value is on record?
**A.** Its value is 0.18.

**Q.** Which “Henry solubility constant Hcp” value does the source give for `Clc1ccc(Cl)c(-c2c(Cl)c(Cl)cc(Cl)c2Cl)c1Cl` [2,2',3,3',5,6,6'-heptachlorobiphenyl] here?
**A.** The value was 0.41.

**Q.** Which “Henry solubility constant Hcp” value does the source give for `Clc1ccc(Cl)c(-c2c(Cl)ccc(Cl)c2Cl)c1Cl` [2,2',3,3',6,6'-hexachlorobiphenyl] here?
**A.** Its value is 0.11.

**Q.** With `Clc1cccc(-c2cccc(Cl)c2Cl)c1Cl` [2,2',3,3'-tetrachlorobiphenyl] as the compound, how does the “Henry solubility constant Hcp” value read?
**A.** Its value is 0.099.

**Q.** Which “Henry solubility constant Hcp” value does the source give for `Clc1cc(Cl)c(-c2cccc(Cl)c2Cl)cc1Cl` [2,2',3,4',5'-pentachlorobiphenyl] here?
**A.** The value was 0.13.

**Q.** With `Clc1cc(Cl)c(Cl)c(-c2cc(Cl)c(Cl)cc2Cl)c1` [2,2',3,4',5,5'-hexachlorobiphenyl] as the compound, how does the “Henry solubility constant Hcp” value read?
**A.** Its value is 0.39.

**Q.** With `Clc1ccc(-c2c(Cl)c(Cl)cc(Cl)c2Cl)c(Cl)c1` [2,2',3,4',5,6-hexachlorobiphenyl] as the compound, how does the “Henry solubility constant Hcp” value read?
**A.** Its value is 0.19.

**Q.** Which “Henry solubility constant Hcp” value does the source give for `Clc1cc(Cl)c(-c2ccc(Cl)c(Cl)c2Cl)cc1Cl` [2,2',3,4,4',5'-hexachlorobiphenyl] here?
**A.** The value was 0.47.

**Q.** For `Clc1ccc(-c2ccc(Cl)c(Cl)c2Cl)c(Cl)c1` [2,2',3,4,4'-pentachlorobiphenyl], which “Henry solubility constant Hcp” value is on record?
**A.** The value was 0.15.

**Q.** With `Clc1ccc(Cl)c(-c2cc(Cl)c(Cl)c(Cl)c2Cl)c1` [2,2',3,4,5,5'-hexachlorobiphenyl] as the compound, how does the “Henry solubility constant Hcp” value read?
**A.** Its value is 0.43.

**Q.** Which “Henry solubility constant Hcp” value does the source give for `Clc1cc(Cl)c(-c2cc(Cl)c(Cl)cc2Cl)cc1Cl` [2,2',4,4',5,5'-hexachlorobiphenyl] here?
**A.** The value was 0.43.

**Q.** Which “Henry solubility constant Hcp” value does the source give for `Clc1ccc(-c2cc(Cl)c(Cl)cc2Cl)c(Cl)c1` [2,2',4,4',5-pentachlorobiphenyl] here?
**A.** The value was 0.13.

**Q.** For `Clc1cc(Cl)c(-c2c(Cl)cccc2Cl)cc1Cl` [2,2',4,5,6'-pentachlorobiphenyl], which “Henry solubility constant Hcp” value is on record?
**A.** Its value is 0.11.

**Q.** For `Clc1ccc(Cl)c(-c2cc(Cl)ccc2Cl)c1` [2,2',5,5'-tetrachlorobiphenyl], which “Henry solubility constant Hcp” value is on record?
**A.** Its value is 0.049.

**Q.** For `Clc1ccc(Cl)c(-c2ccccc2Cl)c1` [2,2',5-trichlorobiphenyl], which “Henry solubility constant Hcp” value is on record?
**A.** Its value is 0.039.

**Q.** For `Clc1cccc(Cl)c1-c1c(Cl)cccc1Cl` [2,2',6,6'-tetrachlorobiphenyl], which “Henry solubility constant Hcp” value is on record?
**A.** The value was 0.049.

**Q.** With `Clc1ccccc1-c1c(Cl)cccc1Cl` [2,2',6-trichlorobiphenyl] as the compound, how does the “Henry solubility constant Hcp” value read?
**A.** Its value is 0.043.

**Q.** Which “Henry solubility constant Hcp” value does the source give for `Clc1ccc(Cl)c(-c2ccc(Cl)c(Cl)c2)c1` [2,3',4',5-tetrachlorobiphenyl] here?
**A.** The value was 0.099.

**Q.** Which “Henry solubility constant Hcp” value does the source give for `Clc1cccc(-c2cc(Cl)c(Cl)cc2Cl)c1` [2,3',4,5-tetrachlorobiphenyl] here?
**A.** The value was 0.099.

**Q.** Which “Henry solubility constant Hcp” value does the source give for `Clc1cccc(-c2ccccc2Cl)c1` [2,3'-dichlorobiphenyl] here?
**A.** The value was 0.039.

**Q.** With `Clc1cc(Cl)cc(-c2cc(Cl)c(Cl)c(Cl)c2Cl)c1` [2,3,3',4,5,5'-hexachlorobiphenyl] as the compound, how does the “Henry solubility constant Hcp” value read?
**A.** The value was 0.49.

**Q.** Which “Henry solubility constant Hcp” value does the source give for `Clc1cccc(-c2c(Cl)c(Cl)c(Cl)c(Cl)c2Cl)c1` [2,3,3',4,5,6-hexachlorobiphenyl] here?
**A.** The value was 0.49.

**Q.** For `Clc1cc(Cl)cc(-c2c(Cl)c(Cl)cc(Cl)c2Cl)c1` [2,3,3',5,5',6-hexachlorobiphenyl], which “Henry solubility constant Hcp” value is on record?
**A.** Its value is 0.34.

**Q.** Which “Henry solubility constant Hcp” value does the source give for `Clc1cc(Cl)c(-c2ccccc2)c(Cl)c1Cl` [2,3,4,6-tetrachlorobiphenyl] here?
**A.** Its value is 0.047.

**Q.** Which “Henry solubility constant Hcp” value does the source give for `Clc1ccc(Cl)c(-c2ccccc2)c1Cl` [2,3,6-trichlorobiphenyl] here?
**A.** Its value is 0.045.

**Q.** Which “Henry solubility constant Hcp” value does the source give for `Clc1ccc(-c2cc(Cl)ccc2Cl)cc1` [2,4',5-trichlorobiphenyl] here?
**A.** The value was 0.052.

**Q.** Which “Henry solubility constant Hcp” value does the source give for `Clc1cccc(-c2cc(Cl)cc(Cl)c2)c1` [3,3',5-trichlorobiphenyl] here?
**A.** Its value is 0.058.

**Q.** With `Clc1ccc(-c2ccc(Cl)c(Cl)c2)cc1` [3,4,4'-trichlorobiphenyl] as the compound, how does the “Henry solubility constant Hcp” value read?
**A.** Its value is 0.099.

**Q.** With `Clc1ccc(-c2ccccc2)cc1Cl` [3,4-dichlorobiphenyl] as the compound, how does the “Henry solubility constant Hcp” value read?
**A.** Its value is 0.07.
